Measurements reported in patent US11407977B2, “Tissue scaffolds for electrically excitable cells” (Innovative Surface Technologies, Inc., priority 2013, dated 2022).

System: bioartificial rat hippocampal brain slice
Test: Evoked fEPSP field recording on bioartificial tissue scaffold with antagonist cocktail
Assay type: cell-based
Conditions: cocktail in ACSF: CNQX 10 microM, APV 50 microM, Bicuculline Methbromide 50 microM; 10 minute wash-in; 28 d.i.v.; drug-subtracted average fEPSP, FIG. 12
Description: Dissociated hippocampal cells were seeded on open-field scaffolds and grown in an incubator as described in Example 9, to generate bioartificial open field hippocampal brain tissue “slices.” FIG. 11 is a photo micrograph of the bioartificial tissue, on its scaffold, in a conventional field recording chamber.
Bioartificial tissue scaffolds were removed from the incubator for electrophysiological testing between 14-90 days in vitro (d.i.v.). For electrophysiological field recordings, bioartificial tissue scaffolds were suspended on a nylon mesh in a small (350-400 μl) recording chamber (FIG. 11) and perfused with artificial cerebrospinal fluid (ACSF) at a rate of 2.5-3 ml/min (submerged mode). The temperature in the recording chamber was held at 30-32° C. Recordings were made using an ACSF-filled glass micropipette (2-4 MΩ) positioned as shown (FIG. 6) and connected via a head stage to the amplifier (A-M Systems model 1800). Signals were digitized at 100 kHz using a Digidata 1550 series interface (Axon instruments) running ClampEx 10.4. Synaptic responses were evoked by electrical stimulation using a bipolar tungsten electrode (tip spacing, 140 micrometers; Frederick Haer Company) and a 100 microsecond square wave test pulse was delivered at intervals of twenty seconds (FIG. 6). Stimulus-response relationship was established over the range of 0-1000 microV. […]

Row | Structure (SMILES) | effect on evoked fEPSP
1 | N[C@@H](CCCP(=O)(O)O)C(=O)O [APV] | sensitivity of the bioartificial rat hippocampal brain slice
2 | N#Cc1cc2[nH]c(=O)c(=O)[nH]c2cc1[N+](=O)[O-] [CNQX] | sensitivity of the bioartificial rat hippocampal brain slice
